Test results as given in the supplement of paper PMC11451515.

Tests used:
Details in all cases: 48 h
NOMO1 [1] = assay: cell viability relative to DMSO control; higher = less cytotoxic
Procedure, shortened: (§1)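 In 1536-well plates, 5 μl of leukemia cells were seeded per well: 500 cells/well for NOMO1 or SEM and 1000 cells/well for P12-Ichikawa. Each line had first been adapted for at least four passages in each medium. Library compounds in DMSO were pin-dosed at 11 threefold concentrations between 47 μM and 0.79 nM, and CellTiter-Glo One luminescence was read after 48 h at 37°C. Viability is a per-plate percentage relative to DMSO wells, with cell-free wells as background.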

P12-Ichikawa [2] = assay: as above
Procedure, shortened: as §1

SEM cells [3] = assay: as above
Procedure, shortened: as §1

NOMO1 [4] = assay: AUC of viability dose-response curve (% viability x log10 dose units); higher = less sensitive
Procedure, shortened: (§2)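 Area under the curve was integrated by trapezoidal rule from a log-logistic fit of normalised viability, with curves exceeding full viability scaled and quality-control failures removed. The fit had four parameters over log10 doses. Viability came from CellTiter-Glo One luminescence, normalised per plate to DMSO and cell-free wells, after leukemia cells adapted to each medium (500 or 1000 cells/well, 1536-well plates) were exposed to library compounds in DMSO for 48 h at 37°C. The 11 threefold doses ran from 47 μM to 0.79 nM.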

P12-Ichikawa [5] = assay: as above
Procedure, shortened: as §2

SEM cells [6] = assay: as above
Procedure, shortened: as §2

Cn1cc(C[C@@H](N)C(=O)O)c2ccccc21
cell viability [%]
Details	NOMO1 [1]	P12-Ichikawa [2]	SEM cells [3]
HPLM + 10% dialyzed FBS, 0.000781 µM	107	103	92
HPLM + 10% dialyzed FBS, 0.00234 µM	106	109	105
HPLM + 10% dialyzed FBS, 0.00702 µM	108	106	95.8
HPLM + 10% dialyzed FBS, 0.0211 µM	106	104	113
HPLM + 10% dialyzed FBS, 0.0632 µM	92.4	105	112
HPLM + 10% dialyzed FBS, 0.19 µM	111	109	121
HPLM + 10% dialyzed FBS, 0.569 µM	100	105	112
HPLM + 10% dialyzed FBS, 1.71 µM	101	102	111
HPLM + 10% dialyzed FBS, 5.12 µM	101	100	101
HPLM + 10% dialyzed FBS, 15.4 µM	90.8	98.2	92.3
HPLM + 10% dialyzed FBS, 46.1 µM	94.9	97.2	76.7
RPMI 5 mM glucose + 10% FBS, 0.000781 µM	90.4	98.8	80
RPMI 5 mM glucose + 10% FBS, 0.00234 µM	90.7	107	50.1
RPMI 5 mM glucose + 10% FBS, 0.00702 µM	96.5	104	79.6
RPMI 5 mM glucose + 10% FBS, 0.0211 µM	107	101	94
RPMI 5 mM glucose + 10% FBS, 0.0632 µM	89.6	99.6	89.8
RPMI 5 mM glucose + 10% FBS, 0.19 µM	95.1	106	96.4
RPMI 5 mM glucose + 10% FBS, 0.569 µM	95.6	107	91.1
RPMI 5 mM glucose + 10% FBS, 1.71 µM	95.5	97.1	97.9
RPMI 5 mM glucose + 10% FBS, 5.12 µM	92.6	99.8	107
RPMI 5 mM glucose + 10% FBS, 15.4 µM	97.9	100	80.9
RPMI 5 mM glucose + 10% FBS, 46.1 µM	81.2	87.1	62.7
RPMI 5 mM glucose + 10% dialyzed FBS, 0.000781 µM	90	91.3	114
RPMI 5 mM glucose + 10% dialyzed FBS, 0.00234 µM	90.1	101	92.1
RPMI 5 mM glucose + 10% dialyzed FBS, 0.00702 µM	93.4	100	102
RPMI 5 mM glucose + 10% dialyzed FBS, 0.0211 µM	94	98.3	106
RPMI 5 mM glucose + 10% dialyzed FBS, 0.0632 µM	101	105	97.7
RPMI 5 mM glucose + 10% dialyzed FBS, 0.19 µM	98.9	106	108
RPMI 5 mM glucose + 10% dialyzed FBS, 0.569 µM	93.8	96.5	98.8
RPMI 5 mM glucose + 10% dialyzed FBS, 1.71 µM	88.9	100	97
RPMI 5 mM glucose + 10% dialyzed FBS, 5.12 µM	93.3	95.8	102
RPMI 5 mM glucose + 10% dialyzed FBS, 15.4 µM	87	93	96.3
RPMI 5 mM glucose + 10% dialyzed FBS, 46.1 µM	76.7	91.9	70

AUC of viability dose-response curve
Details	NOMO1 [4]	P12-Ichikawa [5]	SEM cells [6]
HPLM + 10% dialyzed FBS	449	467	461
RPMI 5 mM glucose + 10% FBS	448	472	406
RPMI 5 mM glucose + 10% dialyzed FBS	440	469	467

O=C(/C=C/c1ccc(O)cc1)c1ccc(O)cc1O
cell viability [%]
Details	NOMO1 [1]	P12-Ichikawa [2]	SEM cells [3]
HPLM + 10% dialyzed FBS, 0.000781 µM	138	108	113
HPLM + 10% dialyzed FBS, 0.00234 µM	116	98.4	112
HPLM + 10% dialyzed FBS, 0.00702 µM	117	95	131
HPLM + 10% dialyzed FBS, 0.0211 µM	110	109	108
HPLM + 10% dialyzed FBS, 0.0632 µM	104	106	141
HPLM + 10% dialyzed FBS, 0.19 µM	126	104	131
HPLM + 10% dialyzed FBS, 0.569 µM	128	103	120
HPLM + 10% dialyzed FBS, 1.71 µM	97.2	95.9	109
HPLM + 10% dialyzed FBS, 5.12 µM	106	99.6	124
HPLM + 10% dialyzed FBS, 15.4 µM	82.4	87.8	81.2
HPLM + 10% dialyzed FBS, 46.1 µM	46.8	43.1	26.6
RPMI 5 mM glucose + 10% FBS, 0.000781 µM	112	108	118
RPMI 5 mM glucose + 10% FBS, 0.00234 µM	105	103	122
RPMI 5 mM glucose + 10% FBS, 0.00702 µM	101	110	134
RPMI 5 mM glucose + 10% FBS, 0.0211 µM	109	105	125
RPMI 5 mM glucose + 10% FBS, 0.0632 µM	113	111	124
RPMI 5 mM glucose + 10% FBS, 0.19 µM	110	108	133
RPMI 5 mM glucose + 10% FBS, 0.569 µM	119	98.3	106
RPMI 5 mM glucose + 10% FBS, 1.71 µM	98.8	98.5	116
RPMI 5 mM glucose + 10% FBS, 5.12 µM	103	107	111
RPMI 5 mM glucose + 10% FBS, 15.4 µM	96.1	65.9	79.6
RPMI 5 mM glucose + 10% FBS, 46.1 µM	86.6	11.7	17
RPMI 5 mM glucose + 10% dialyzed FBS, 0.000781 µM	120	105	98
RPMI 5 mM glucose + 10% dialyzed FBS, 0.00234 µM	103	101	94.4
RPMI 5 mM glucose + 10% dialyzed FBS, 0.00702 µM	109	109	118
RPMI 5 mM glucose + 10% dialyzed FBS, 0.0211 µM	106	106	91.9
RPMI 5 mM glucose + 10% dialyzed FBS, 0.0632 µM	107	119	121
RPMI 5 mM glucose + 10% dialyzed FBS, 0.19 µM	110	113	105
RPMI 5 mM glucose + 10% dialyzed FBS, 0.569 µM	110	104	100
RPMI 5 mM glucose + 10% dialyzed FBS, 1.71 µM	88.4	97.3	91
RPMI 5 mM glucose + 10% dialyzed FBS, 5.12 µM	102	95.5	81.8
RPMI 5 mM glucose + 10% dialyzed FBS, 15.4 µM	109	41.8	59.5
RPMI 5 mM glucose + 10% dialyzed FBS, 46.1 µM	70.2	9.51	9.38

AUC of viability dose-response curve
Details	NOMO1 [4]	P12-Ichikawa [5]	SEM cells [6]
HPLM + 10% dialyzed FBS	437	454	443
RPMI 5 mM glucose + 10% FBS	460	438	433
RPMI 5 mM glucose + 10% dialyzed FBS	452	420	417
